For data set [1], the target named is T1, rat mast cell protease II (Rattus norvegicus, UniProt P00770).
T1 construct: rat mast cell protease II; from tissue; host or cells: rat mast cells (by the enzyme's name only)
The data set can be described thus: Inactivation rate of rat mast cell protease II. Particulars: Table V; pH 7.5, 25° C; [I] 0.007 to 0.013 mM; read-out: kobs/[I]. The data set is classed as biochemical. Here is the method: (§1) Inactivation rates of serine proteases by substituted isocoumarins were measured by the incubation method. An aliquot of inhibitor (25 or 50 μl) in Me2 SO was added to a buffered enzyme solution (0.01-2.3 μM) to initiate the inactivation. Aliquots (50 μl) were withdrawn at various intervals and the residual enzymatic activity was measured. Me2 SO concentration in the reaction mixture was 8-12% (v/v). 0.1 Hepes, 0.01M CaCl2, pH 7.5 buffer was utilized for trypsin and coagulation enzymes. 0.1M Hepes, 0.5M NaCl, pH 7.5 was utilized for other serine proteases. The inhibitor concentrations are shown in all the tables. Peptide thioesters or peptide nitroanilides with appropriate sequence were used as substrates for various serine proteases. All peptide thioester hydrolysis rates were measured with assay mixtures containing 4,4'-dithiodipyridine (ε324 =19800M^-1 cm^-1; Grasetti & Murray, Arch. Biochem. Biophys. 119, pp 41-49 (1967)). Peptide 4-nitroanilide nitroanilide hydrolysis was measured at 410 nm (ε410 =8800M^-1 cm^-1; Erlanger et al., Arch. Biochem. Biophys. 95, pp 271-278 (1961)). First order inactivation rate constant (kobs) were obtained from plots of ln (vt /vo) vs time, and the correlation coefficients were greater than 0.98.
(§2) ^a Inactivation rates were measured at 0.1M Hepes, 0.5M NaCl, pH 7.5,
(§3) 8-12% Me2 SO and 25° C. by incubation method. An aliquot of […]

The target in a further data set is T2, human skin chymase (Homo sapiens, UniProt P23946).
T2 construct: human skin chymase; from tissue; host or cells: human skin
Nature of the data set: Inactivation rate of human skin chymase. Format: biochemical. Particulars: Table V; pH 7.5, 25° C; [I] 0.41 to 0.53 mM; read-out: kobs/[I]. The method, then:
as §1, §2, §3

The next data set addresses T3, human thrombin (Homo sapiens, UniProt P00734).
T3 construct: human thrombin
The data set can be described thus: Inactivation rate of human thrombin. The data set is classed as biochemical. Particulars: Table VIII; pH 7.5, 25° C; [I] 1.2-54 μM; read-out: kobs/[I]. The method in brief:
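Incubation method: enzyme (0.01-2.3 μM) mixed with inhibitor in 0.1M Hepes, 0.01M CaCl2, pH 7.5, 8% Me2SO, 25° C; residual activity sampled over time with peptide thioester or 4-nitroanilide substrates. kobs from ln(vt/vo) vs time plots.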

The nature of data set [2]: Spontaneous hydrolysis in rabbit plasma. Format: in vitro ADME. Particulars: for half-life: rabbit plasma, read-out: t1/2 for spontaneous hydrolysis.
Data set [3] can be described thus: Activated partial thromboplastin time (APTT), rabbit plasma.
A further data set deals with T4, C2a (Homo sapiens, UniProt P06681).
T4 construct: active fragments C2a, Bb
The data set can be described thus: Inactivation rate of complement fragment C2a. Particulars: Table II; pH 7.5, 25° C; [I] 0.19 to 1.25 mM; read-out: kobs/[I]. The data set is classed as biochemical. The method, then:
as §1
^a Conditions were 0.1M Hepes, 0.5M NaCl, pH 7.5, 8-10% Me2 SO
and 25° C. Inactivation rates were measured by incubation method. […]

In a further data set the target is T5, human lung chymase (Homo sapiens, UniProt P23946).
T5 construct: human lung chymase; from tissue; host or cells: human lung
The data set can be described thus: Inactivation rate of human lung chymase. Format: biochemical. Particulars: Table V; pH 7.5, 25° C; [I] 0.38 mM; read-out: kobs/[I]. The method, then: as §1, §2, §3

For data set [4], the system named is pig plasma. Nature of the data set: Prothrombin time (PT), pig plasma.
The test system of data set [5] is pig plasma. Nature of the data set: Activated partial thromboplastin time (APTT), pig plasma. To be noted: [I] 16 μM.

T1 sequence (P00770 21-247): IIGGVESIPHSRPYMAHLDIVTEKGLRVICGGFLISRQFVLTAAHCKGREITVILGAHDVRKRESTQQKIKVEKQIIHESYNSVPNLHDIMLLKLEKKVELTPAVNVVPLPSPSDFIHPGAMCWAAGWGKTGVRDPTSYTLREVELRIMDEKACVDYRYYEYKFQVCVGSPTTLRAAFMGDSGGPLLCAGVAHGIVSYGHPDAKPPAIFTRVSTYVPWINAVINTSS
T2 sequence (P23946 22-247): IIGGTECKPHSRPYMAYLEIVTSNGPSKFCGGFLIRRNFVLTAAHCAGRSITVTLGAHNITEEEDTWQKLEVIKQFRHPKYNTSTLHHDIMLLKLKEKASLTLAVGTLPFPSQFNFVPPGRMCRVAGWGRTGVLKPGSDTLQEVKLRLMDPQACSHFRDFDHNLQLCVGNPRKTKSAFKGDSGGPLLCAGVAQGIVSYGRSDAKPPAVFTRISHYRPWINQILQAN
T4 sequence (P06681 244-752 limits assumed): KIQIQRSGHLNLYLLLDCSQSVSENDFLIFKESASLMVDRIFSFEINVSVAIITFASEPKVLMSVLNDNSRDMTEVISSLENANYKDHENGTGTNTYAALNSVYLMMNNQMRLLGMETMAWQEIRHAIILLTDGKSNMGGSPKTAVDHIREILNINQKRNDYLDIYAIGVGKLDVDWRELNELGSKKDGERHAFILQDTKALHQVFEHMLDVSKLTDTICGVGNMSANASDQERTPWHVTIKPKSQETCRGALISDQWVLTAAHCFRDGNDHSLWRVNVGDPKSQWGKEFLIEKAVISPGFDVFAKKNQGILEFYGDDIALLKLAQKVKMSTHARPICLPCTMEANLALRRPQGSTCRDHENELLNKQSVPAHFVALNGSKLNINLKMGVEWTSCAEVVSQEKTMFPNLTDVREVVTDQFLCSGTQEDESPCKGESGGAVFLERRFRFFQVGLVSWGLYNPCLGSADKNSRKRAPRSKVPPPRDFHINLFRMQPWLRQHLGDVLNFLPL
T5 sequence (P23946 22-247): as the sequence (P23946 22-247) above

In the case of `N=C(N)Nc1ccc2c(Cl)c(OCCc3ccccc3)oc(=O)c2c1` [7-guanidino-4-chloro-3-(2-phenylethoxy)isocoumarin], the kinact/KI in [1] stood at 4100 M⁻¹ s⁻¹; at human skin chymase it was 22 M⁻¹ s⁻¹.
For the molecule `N=C(N)SCCCOc1oc(=O)c2cc(N)ccc2c1Cl` [7-amino-4-chloro-3-(3-isothiureidopropoxy)isocoumarin], the kinact/KI on human thrombin was 760 M⁻¹ s⁻¹. In addition, in [2], the “stability in rabbit plasma (in words)” value is “fairly stable” and the half-life was 2.33 h. In data set [3] ([I] 33 μM), the APTT worked out at 68.6 s.
On to `N=C(N)SCCOc1oc(=O)c2ccccc2c1Cl` [3-(2-isothiureidoethoxy)-4-chloroisocoumarin], for which the kinact/KI on C2a was 1.4 M⁻¹ s⁻¹.
Regarding `CCOc1oc(=O)c2cc(NC(=N)N)ccc2c1Cl` [7-guanidino-3-ethoxy-4-chloroisocoumarin, 7-guanidino-4-chloro-3-ethoxyisocoumarin], the results for the kinact/KI (in data set [1]; on human skin chymase; at human lung chymase) were 1100 M⁻¹ s⁻¹, 33 M⁻¹ s⁻¹ and 540 M⁻¹ s⁻¹, respectively. For the same molecule, in data set [2], the half-life came to 0.07 h. Also, the APTT in data set [3] ([I] 31 μM) worked out at 60.5 s.
Turning to `N=C(N)SCCCOc1oc(=O)c2ccccc2c1Cl` [3-(3-isothiureidopropoxy)-4-chloroisocoumarin], the kinact/KI at C2a came to 0.8 M⁻¹ s⁻¹.
On to `N=C(N)SCCOc1oc(=O)c2cc(NC(=O)Nc3ccccc3)ccc2c1Cl` [PhNHCONH-CiTEtOIC, 7-(phenylcarbamoylamino)-4-chloro-3-(2-isothiureidoethoxy)isocoumarin], for which, on human thrombin, the kinact/KI was 22400 M⁻¹ s⁻¹. The PT in the data set with pig plasma [4] ([I] 16 μM) worked out at 28.5 s; in the data set on pig plasma [4] ([I] 32 μM), 58.3 s. In the data set on pig plasma [5], this molecule came in with an APTT of more than 120 s.

The values above are taken from patent US5324648A, “Substituted isocoumarins as serine protease inhibitors and anti-inflammatory agents” (Georgia Tech Research Corporation, priority 1992, dated 1994).
